Bridge positions count the residues as written; N and C are the ends. Peptide text beside a SMILES is read from it.
Legend:
[1] = oral bioavailability in mice, radioimmunoassay (RIA) detection; parameters: species or system CD-1 mice; conditions: female, CD-1, mouse, in vivo, 8 mg/kg intravenous, read-out: AUCi.v.,(0-4h) (converted)
Procedure: Oral bioavailability was also determined using a radioimmunoassay (RIA) detection method. Female CD-1 mice (Charles River, Wilmington, Mass.) weighing approximately 25g (7-8 weeks old) or female CD rats (Charles River, Wilmington, Mass.) weighing approximately 153 g were included in this study. Monoclonal antibody, 20C1 (Brandwein et al. 1985 Infect Immun. 47:242-246), which recognizes SEQ ID NO:7 and ^125I labeled-SEQ ID NO:7, a labeled tracer, were used in these experiments. The labeled tracer was purified by HPLC using a Waters C-18u Bondapak® column (25 cm) previously equilibrated with 10 mM ammonium acetate pH 5.8. […] Blood was drawn from all dosed animals by retro-orbital eye bleeding at specific intervals and test compound levels were analyzed by radioimmunoassay (RIA). […] Radioactivity was measured in a LS 6500 scintillation counter (Beckman-Coulter). The binding efficiency is defined as the percent radioactivity in the B0 sample compared to the input counts. The percent bound in each sample was calculated by the equation: […]
A standard curve was prepared by plotting % B/B0 as a function of the log SEQ ID NO:3 concentration. […] The area under the curve from T=0 to 4 hours (AUC0-4h) was calculated by the software for both p.o. and i.v. dosed animals. […] Oral Bioavailabilty (F) is calculated using the equation: […]

[2] = system: abdominal EMG response to colorectal distension; experiment: colorectal distension in WT and GC-C KO mice, basal and TNBS-induced; assay type: in vivo; conditions: for TNBS induced hypersensitivity to CRD: oral 0.01 μg/kg
Procedure: TNBS induced visceral hypersensitivity was assessed in WT and GC-C KO mice. Two groups (WT and GC-C KO) of male mice (22-25g) were surgically prepared for electromyographic (EMG) recordings. Three electrodes were implanted in the striated muscles of the abdomen for EMG recording of abdominal contractions. Colorectal distension (CRD) was performed with a balloon inflated by 10 s steps of 0.02 ml from 0 to 0.12 ml. Under basal conditions mice were submitted to control CRD (time 0) followed by oral administration of SEQ ID NO:3 (0.01 and 0.3 μg/kg) or vehicle only (distilled water, 1 ml) at 3 hours. One hour post dosing the CRD procedure was repeated. Abdominal EMG contractile response to colorectal distension in basal conditions in both WT and GC-C KO mice (12-14 mice per group) was determined in the absence of vehicle and SEQ ID NO:3, and the mean +/− standard error of the mean (SEM) is graplhically depicted in FIG. 7c.
For TNBS induced visceral hypersensitivity conditions, mice were submitted to control CRD (time 0) and TNBS (20 mg/kg) was administered at 3 days. Three days post intracolonic TNBS-induction animals were orally admistered SEQ ID NO:3 (0.01 and 0.3 μg/kg) or vehicle (distilled water, 1 ml) 1 hour before CRD. The effect of SEQ ID NO:3 (0.01 μg/kg) on abdominal response to colorectal distension after TNBS in WT and GC-C KO mice (12-14 per group) at a volume distension of […] was determined and the mean +/− standard error of the mean (SEM) is graphically depicted in FIG. 7d.

PBQ-induced writhing = experiment: phenylbenzoquinone (PBQ)-induced writhing model
gastrointestinal transit = gastrointestinal transit assay in wild-type and GC-C KO mice; assay type: in vivo; conditions: oral 100 μg/kg
Procedure: Wild type and GC-C KO mice were fasted overnight and SEQ ID NO: 3 or vehicle alone were orally administered 10 minutes prior to an oral dose of a 10% Activated Carbon/10% Gum Arabic suspension. Animals were sacrificed […] after peptide or vehicle administration.

C[C@@H]1NC(=O)[C@@H]2CCCN2C(=O)[C@H](CC(N)=O)NC(=O)[C@@H]2CSSC[C@H](N)C(=O)N[C@H]3CSSC[C@H](NC1=O)C(=O)N[C@@H]([C@@H](C)O)C(=O)NCC(=O)N[C@H](C(=O)N[C@@H](Cc1ccc(O)cc1)C(=O)O)CSSC[C@H](NC(=O)[C@H](Cc1ccc(O)cc1)NC(=O)[C@H](CCC(=O)O)NC3=O)C(=O)N2 [SEQ ID NO:3] (H-CCEYCCNPACTGCY-OH; disulfide 1-6, 2-10, 5-13; N-terminus and C-terminus assumed)
AUC [1]: 27700 ng·h/mL
TNBS induced hypersensitivity to CRD ([2]; GC-C KO mice): not observed
TNBS induced hypersensitivity to CRD ([2]; WT mice, volume distension of 0.8 ml): reduces the TNBS induced hypersensitivity to CRD
EMG response to colorectal distension ([2]; basal conditions, WT mice, oral 0.01 and 0.3 μg/kg): decreased the EMG response to colorectal distension
writhings versus vehicle control (PBQ-induced writhing; 2.5 mg/kg dose, oral): Significant reductions in writhings
antinociceptive effect compared with indomethacin (PBQ-induced writhing; PBQ writhing assay): antinociceptive effects in this visceral pain model comparable to the intermediate doses of indomethacin
gastrointestinal transit rate versus vehicle (gastrointestinal transit): an increase (p<0.001) in gastrointestinal transit rate

Reference: patent US20090253634A1, “Methods and Compositions for the Treatment of Gastrointestinal Disorders” (MICROBIA, INC., priority 2005, published 2009)
